Measured values: patent publication US12616203B2, “Use of 3-isoxazolidinones compounds as selective herbicides” (FMC Corporation, priority 2014, dated 2026)
“Also recorded” adds a separate entry of the source.

Columns and labels:
[1] = test system: weeds; corn, wheat, cotton, cowpea, and bush bean; assay: Ex42 PRE greenhouse; assay type: in vivo; details: crop and rate in the words
Excerpt: (§1) Thereafter flats were watered and fertilized routinely.

[2] = test system: Annual bluegrass; assay: Ex34 PRE 2,4-DC + napropamide, % control, Colby; assay type: in vivo, Poa annua; details: 28 DAT
Excerpt: as §1

[3] = test system: Wild oat; assay: Ex32 PRE 2,4-DC + pyroxasulfone + sulfentrazone, % control 28 DAT, Colby; assay type: in vivo, Avena fatua
Excerpt: (§2) Treatments were applied at the time of planting to Italian ryegrass, green foxtail, littleseed canarygrass, wild oat, quackgrass, dandelion, common chickweed, white clover, yellow nutsedge, redroot pigweed, field bindweed, canola, and wheat. […] Flats were watered and fertilized routinely after treatment application.

[4] = test system: Blackgrass; assay: Ex13 PRE 2,4-DC + diflufenican, % control 28 DAT, Colby; assay type: in vivo, Alopecurus myosuroides
Excerpt: Pyroxasulfone (KIH-485, 85%) at 74.3 g ai/ha, pendimethalin (Prowl 3.3EC, 37.4%) at 1200 g ai/ha, or a premix of chlorsulfuron plus metsulfuron-methyl (Report Extra, 75%) at 15.8 g ai/ha were applied as commercial standards. […] Treatments were replicated 3 times and flats were watered after planting before the treatment and lightly watered after treatment application. Thereafter flats were watered and fertilized routinely.

[5] = test system: Yellow nutsedge; assay: Ex32 PRE 2,4-DC + pyroxasulfone + sulfentrazone, % control 28 DAT, Colby; assay type: in vivo, Cyperus esculentus
Excerpt: as §2

[6] = test system: weeds; Wheat and Barley; assay: Ex14 POST greenhouse; assay type: in vivo; details: 28 DAT, rate in the words
Excerpt: (§3) The study further assessed post crop safety on Wheat and Barley.
(§4) Nonionic surfactant at 0.5% (v/v) was included with commercial standards application. No adjuvant was applied with any other treatments. All plant species were direct seeded into 3″ plastic pots using metro-mix as growth media. At treatment application common lambsquarters was 1.75″, common chickweed was 2″, wild mustard was 2.25″, wild oat was 5.5″, wild buckwheat was 2-5″, Italian ryegrass was 2-3″, wheat was 5.5″, and barley was 4.5″ in height. Plants were watered well before application and not watered 24 h after application. Plants were watered and fertilized routinely after treatment application. Each treatment was replicated four times.

[7] = test system: weeds; corn, sweet corn, and sorghum; assay: Ex37 PRE greenhouse; assay type: in vivo; details: weed and rate in the words
Excerpt: S-metolachlor (DUAL II MAGNUM®, 82.4%) at 525 g ai/h plus atrazine at 560 g ai/h was included as a standard for comparison. […] Thereafter flats were watered and fertilized routinely.

[8] = test system: weeds; assay: Ex20 PRE greenhouse; assay type: in vivo; details: weed and rate in the words
Excerpt: Herbicides: • 2,4 DC-21 (36.7% CS): 125, 170, 210, or 250 g ai/ha alone and as tank-mix with dimethenamid-P • Dimethanamid-P (Outlook, 63.9%): 250, 375, 500 g ai/ha in combination with 2,4 DC and alone, additional treatment alone at 750 g ai/ha. • Metazachlor (Butisan 43.1%): 500 g ai/ha
Herbicides included as standards for comparison were metazachlor plus dimethenamid-P (500 g) as tank mix combination. […] Treatments were replicated 3 times. […] Thereafter flats were watered and fertilized routinely.

[9] = test system: common chickweed; assay: Ex14 POST 2,4-DC + bromoxynil, % control 28 DAT, Colby; assay type: in vivo, Stellaria media
Excerpt: as §3, §4

[10] = test system: weeds; Wheat and canola; assay: Ex44 PRE greenhouse; assay type: in vivo; details: weed and rate in the words
Excerpt: Redroot pigweed (Amaranth retroflexus, AMARE), Italian ryegrass (Lolium perenne. multiflorum, LOLMU), wild mustard (Sinapis arvensis, SINAR), annual bluegrass (Poa annua POAAN), wild oat (Avena fatua, AVEFA), blackgrass (Alopecurus myosuroides, ALOMY), common lambsquarters (Chenopodium album, […] (Phalaris minor, PHAMI), common chickweed (Stellaria media, STEME), corn poppy (Papaver rhoeas, PAPRH) and silky […]). Crops tested included wheat and canola. […] Treatments were applied before the emergence of redroot pigweed, Italian ryegrass, wild oat, blackgrass, littleseed canarygrass, common chickweed, common lambsquarters, corn poppy, wild mustard, annual bluegrass, silky […], canola, and wheat. […] Flats were watered and fertilized routinely after treatment application.

[11] = test system: weeds; Wheat and canola; assay: Ex29 PRE greenhouse; assay type: in vivo; details: 28 DAT, weed, crop, rate in the words
Excerpt: The tested weeds include Italian ryegrass (Lolium perenne. multiflorum, LOLMU), wild mustard (Sinapis arvensis, SINAR), annual bluegrass (Poa annua, POAAN), wild oat (Avena fatua, AVEFA), blackgrass (Alopecurus myosuroides, ALOMY), common lambsquarters (Chenopodium album, CHEAL), littleseed canarygrass (Phalaris minor, PHAMI), common chickweed (Stellaria media, STEME), corn poppy (Papaver rhoeas, PAPRH), redroot pigweed (Amaranthus retroflexus, AMARE), silky windgrass (Apera spica-venti, APSEV), wild buckwheat (Polygonum convolvulus, POLCO). The crops teased were Wheat and canola.
Treatments were applied before the emergence of Italian ryegrass, wild oat, wild buckwheat, blackgrass, littleseed canarygrass, common chickweed, common lambsquarters, corn poppy, silky windgrass, redroot pigweed, wild mustard, annual bluegrass, canola, and wheat. […] Flats were watered and fertilized routinely after treatment application.

[12] = test system: weeds; assay: Ex16 PRE greenhouse; assay type: in vivo; details: weed and rate in the words
Excerpt: To determine PRE efficacy, five levels of 2,4 DC (36.7% CS) 0, 125, 170, 210, or 250 g ai/ha and five levels of pyroxasulfone (KIH485-85WG) 0, 50, 65, 80, or 95 g ai/ha were applied either alone or as tank-mix. Additional treatments consisted of premix of pyroxasulfone plus fluthiacet-methyl (Anthem™ 23.3%) at 169.9 g ai/ha, S-metolachlor (Dual II Magnum, 82.4%) at 1388 g, and tank-mix of mesotrione (Callisto, 40%) at 123 g plus S-metolachlor at 1252 g. […] Treatments were applied before the emergence of black nightshade, giant foxtail, green foxtail, yellow foxtail, large crabgrass, kochia, redroot pigweed, common ragweed, and barnyardgrass.
Flats were watered and fertilized routinely after treatment application. Each treatment was replicated three times.

With `CC1(C)CON(Cc2ccc(Cl)cc2Cl)C1=O` [2,4-DC, 2-(2,4-dichlorophenyl)methyl-4,4-dimethyl-3-isoxazolidinone] the “crop safety in words” value [1] was “applied alone was safe at all rates on all crops at 14 DAT”, the X ([2]; 2,4-DC alone 31 g ai/ha) was 0% and the X ([2]; 2,4-DC alone 63 g ai/ha) was 2%. It also gave an X ([2]; 2,4-DC alone 125 g ai/ha) of 12%, an X ([2]; 2,4-DC alone 250 g ai/ha) of 40% and an X ([2]; 2,4-DC alone 375 g ai/ha) of 63%. It also gave an X ([3]; 2,4-DC alone 50 g ai/ha) of 28%, an X ([3]; 2,4-DC alone 100 g ai/ha) of 28% and an X ([3]; 2,4-DC alone 200 g ai/ha) of 67%. For the same molecule, the X ([4]; 2,4-DC alone 125 g ai/ha) was 23%, the X ([4]; 2,4-DC alone 170 g ai/ha) was 53% and the X ([4]; 2,4-DC alone 210 g ai/ha) was 66%. The X ([4]; 2,4-DC alone 250 g ai/ha) was 68%, the X ([5]; 2,4-DC alone 50 g ai/ha) was 0% and the X ([5]; 2,4-DC alone 100 g ai/ha) was 0%. The X ([5]; 2,4-DC alone 200 g ai/ha) was 17%, the “weed control / crop safety in words” value [6] was “applied alone did not control any weed in the assay, and was safe at all rates on both wheat and barley” and the “weed control in words” value [7] was “applied alone at ≥50 g ai/ha controlled barnyardgrass 28 DAT; also recorded: applied alone at ≥200 g controlled velvetleaf and redroot pigweed”. For the same molecule, the “weed control in words” value [8] was “applied alone at 125 g ai/ha controlled (≥85% injury) Canada thistle, giant foxtail, goosegrass, and common chickweed”, the X ([9]; 2,4-DC alone 125 g ai/ha) was 9% and the X ([9]; 2,4-DC alone 170 g ai/ha) was 7%. For the same molecule, the X ([9]; 2,4-DC alone 210 g ai/ha) was 14%, the X ([9]; 2,4-DC alone 250 g ai/ha) was 28% and the “weed control in words” value [10] was “alone provided control of corn poppy at ≥100 g, Italian ryegrass at ≥200 g, lambsquarters, 400 g, blackgrass at ≥200 g, silky windgrass at ≥100 g and chickweed at all rates”. For the same molecule, the “weed control / crop safety in words” value [11] was “alone gave control of pigweed and Italian ryegrass at ≥200 g ai/ha, corn poppy and wild oat at 400 g, blackgrass at ≥100 g, and common chickweed at all rates” and the “weed control in words” value [12] was “alone controlled kochia at 210 g ai/ha, barnyardgrass and large crabgrass at 125 g, giant foxtail and green foxtail at 170 g”.
